According to patent US20260042731A1, “(2,4-DICHLOROPHENOXY)ACETIC ACID ANALOGS” (CORTEVA AGRISCIENCE LLC, priority 2022, published 2026):
Like-named read-outs stand apart in the source and are kept apart here.

Experiments:
[1] = test system: weeds ABUTH, AMATA, AMBEL, CHEAL, ERICA; assay: Postemergence herbicide evaluation, overall average % weed control (ABUTH, AMATA, AMBEL, CHEAL, ERICA); type: in vivo; conditions: post-emergence, read-out: Overall Ave % Weed Control
[2] = test system: Ambrosia artemisiifolia (AMBEL), common ragweed; assay: Postemergence herbicide evaluation, growth of Ambrosia artemisiifolia (AMBEL); type: in vivo; conditions: Ambrosia artemisiifolia, post-emergence, read-out: AVE. AMBEL, percent reduction in plant size relative to the untreated control
[3] = test system: Amaranthus rudis (AMATA), tall water hemp; assay: Postemergence herbicide evaluation, growth of Amaranthus rudis (AMATA); type: in vivo; conditions: Amaranthus tuberculatus, post-emergence, read-out: Ave. AMATA, percent reduction in plant size relative to the untreated control
[4] = test system: glyphosate resistant Conyza canadensis (L.) (ERICA), horseweed; assay: Postemergence herbicide evaluation, growth of Conyza canadensis (ERICA); type: in vivo; conditions: Erigeron canadensis, post-emergence, read-out: Ave. ERICA, percent reduction in plant size relative to the untreated control; for pest or weed control at 280 g/ha: 280 g ae/ha; for pest or weed control at 560 g/ha: 560 g ae/ha
[5] = test system: Chenopodium album (CHEAL), common lambsquarters; assay: Postemergence herbicide evaluation, growth of Chenopodium album (CHEAL); type: in vivo; conditions: Chenopodium album, post-emergence, read-out: Ave. CHEAL, percent reduction in plant size relative to the untreated control
[6] = Volatility of compounds measured by thermogravimetric analysis (TGA); type: physicochemical
[7] = test system: Abutilon theophrasti (ABUTH), velvetleaf; assay: Postemergence herbicide evaluation, growth of Abutilon theophrasti (ABUTH); type: in vivo; conditions: Abutilon theophrasti, post-emergence, read-out: AVE. ABUTH, percent reduction in plant size relative to the untreated control

In the case of C/C(=N\OC(=O)COc1ccc(Cl)cc1Cl)c1ccccc1 [Compound A1, Acetophenone O-(2-(2,4-dichlorophenoxy)acetyl) oxime], the pest or weed control at 280 g/ha ([1]; 168 h, 280 g ae/ha, 7 DAA) is reported as 73%, the pest or weed control at 560 g/ha ([1]; 168 h, 560 g ae/ha, 7 DAA) is reported as 77% and the pest or weed control at 280 g/ha ([1]; 336 h, 280 g ae/ha, 14 DAA) is reported as 87%. For the same molecule, the pest or weed control at 560 g/ha ([1]; 336 h, 560 g ae/ha, 14 DAA) was 92%, the pest or weed control at 280 g/ha ([1]; 504 h, 280 g ae/ha, 21 DAA) was 89% and the pest or weed control at 560 g/ha ([1]; 504 h, 560 g ae/ha, 21 DAA) was 95%. For the same molecule, the pest or weed control at 280 g/ha ([2]; 168 h, 280 g ae/ha, 7 DAA) was 65%, the pest or weed control at 560 g/ha ([2]; 168 h, 560 g ae/ha, 7 DAA) was 80% and the pest or weed control at 280 g/ha ([2]; 336 h, 280 g ae/ha, 14 DAA) was 88%. The pest or weed control at 560 g/ha ([2]; 336 h, 560 g ae/ha, 14 DAA) was 97%, the pest or weed control at 280 g/ha ([2]; 504 h, 280 g ae/ha, 21 DAA) was 95% and the pest or weed control at 560 g/ha ([2]; 504 h, 560 g ae/ha, 21 DAA) was 100%. For the same molecule, the pest or weed control at 280 g/ha ([3]; 168 h, 280 g ae/ha, 7 DAA) was 73%, the pest or weed control at 560 g/ha ([3]; 168 h, 560 g ae/ha, 7 DAA) was 78% and the pest or weed control at 280 g/ha ([3]; 336 h, 280 g ae/ha, 14 DAA) was 85%. The pest or weed control at 560 g/ha ([3]; 336 h, 560 g ae/ha, 14 DAA) was 87%, the pest or weed control at 280 g/ha ([3]; 504 h, 280 g ae/ha, 21 DAA) was 80% and the pest or weed control at 560 g/ha ([3]; 504 h, 560 g ae/ha, 21 DAA) was 82%. It also gave a pest or weed control at 280 g/ha ([4]; 168 h, 7 DAA) of 73%, a pest or weed control at 560 g/ha ([4]; 168 h, 7 DAA) of 73% and a pest or weed control at 280 g/ha ([4]; 336 h, 14 DAA) of 90%. It also gave a pest or weed control at 560 g/ha ([4]; 336 h, 14 DAA) of 90%, a pest or weed control at 280 g/ha ([4]; 504 h, 21 DAA) of 93% and a pest or weed control at 560 g/ha ([4]; 504 h, 21 DAA) of 98%. The pest or weed control at 280 g/ha ([5]; 168 h, 280 g ae/ha, 7 DAA) was 70%, the pest or weed control at 560 g/ha ([5]; 168 h, 560 g ae/ha, 7 DAA) was 70% and the pest or weed control at 280 g/ha ([5]; 336 h, 280 g ae/ha, 14 DAA) was 78%. It also gave a pest or weed control at 560 g/ha ([5]; 336 h, 560 g ae/ha, 14 DAA) of 89%, a pest or weed control at 280 g/ha ([5]; 504 h, 280 g ae/ha, 21 DAA) of 83% and a pest or weed control at 560 g/ha ([5]; 504 h, 560 g ae/ha, 21 DAA) of 98%. The “TGA Data (rate of weight loss, volatility)” value [6] was 0.5 µg/min, the pest or weed control at 280 g/ha ([7]; 168 h, 280 g ae/ha, 7 DAA) was 83% and the pest or weed control at 560 g/ha ([7]; 168 h, 560 g ae/ha, 7 DAA) was 85%. It also gave a pest or weed control at 280 g/ha ([7]; 336 h, 280 g ae/ha, 14 DAA) of 96%, a pest or weed control at 560 g/ha ([7]; 336 h, 560 g ae/ha, 14 DAA) of 97% and a pest or weed control at 280 g/ha ([7]; 504 h, 280 g ae/ha, 21 DAA) of 97%. For the same molecule, the pest or weed control at 560 g/ha ([7]; 504 h, 560 g ae/ha, 21 DAA) was 100%.
Work on O=C(COc1ccc(Cl)cc1Cl)OCc1ccc(COC(=O)COc2ccc(Cl)cc2Cl)cc1 [Compound B1, 1,4-Phenylenebis(methylene) bis(2-(2,4-dichlorophenoxy)acetate)] yielded a pest or weed control at 280 g/ha ([1]; 168 h) of 19%, a pest or weed control at 560 g/ha ([1]; 168 h) of 31% and a pest or weed control at 280 g/ha ([1]; 336 h) of 21%. For the same molecule, the pest or weed control at 560 g/ha ([1]; 336 h) was 29%, the pest or weed control at 280 g/ha ([1]; 504 h) was 13% and the pest or weed control at 560 g/ha ([1]; 504 h) was 21%. It also gave a pest or weed control at 280 g/ha ([2]; 168 h) of 23%, a pest or weed control at 560 g/ha ([2]; 168 h) of 20% and a pest or weed control at 280 g/ha ([2]; 336 h) of 18%. It also gave a pest or weed control at 560 g/ha ([2]; 336 h) of 18%, a pest or weed control at 280 g/ha ([2]; 504 h) of 0% and a pest or weed control at 560 g/ha ([2]; 504 h) of 5%. For the same molecule, the pest or weed control at 280 g/ha ([3]; 168 h) was 40%, the pest or weed control at 560 g/ha ([3]; 168 h) was 40% and the pest or weed control at 280 g/ha ([3]; 336 h) was 25%. The pest or weed control at 560 g/ha ([3]; 336 h) was 35%, the pest or weed control at 280 g/ha ([3]; 504 h) was 30% and the pest or weed control at 560 g/ha ([3]; 504 h) was 48%. It also gave a pest or weed control at 280 g/ha ([5]; 168 h) of 15%, a pest or weed control at 560 g/ha ([5]; 168 h) of 55% and a pest or weed control at 280 g/ha ([5]; 336 h) of 25%. The pest or weed control at 560 g/ha ([5]; 336 h) was 53%, the pest or weed control at 280 g/ha ([5]; 504 h) was 20% and the pest or weed control at 560 g/ha ([5]; 504 h) was 33%. The “TGA Data (rate of weight loss, volatility)” value [6] was 0.03 µg/min, the pest or weed control at 280 g/ha ([7]; 168 h) was 5% and the pest or weed control at 560 g/ha ([7]; 168 h) was 13%. It also gave a pest or weed control at 280 g/ha ([7]; 336 h) of 8%, a pest or weed control at 560 g/ha ([7]; 336 h) of 5% and a pest or weed control at 280 g/ha ([7]; 504 h) of 8%. The pest or weed control at 560 g/ha ([7]; 504 h) was 3%.
Molecule O=C(COc1ccc(Cl)cc1Cl)OCCOCCOC(=O)COc1ccc(Cl)cc1Cl [Compound B2, Oxybis(ethane-2,1-diyl) bis(2-(2,4-dichlorophenoxy)acetate)] has a pest or weed control at 280 g/ha ([1]; 168 h) of 73%, a pest or weed control at 560 g/ha ([1]; 168 h) of 75% and a pest or weed control at 280 g/ha ([1]; 336 h) of 83%. The pest or weed control at 560 g/ha ([1]; 336 h) was 89%, the pest or weed control at 560 g/ha ([1]; 504 h) was 94% and the “TGA Data (rate of weight loss, volatility)” value [6] was 0.04 µg/min.
